Source: the NIST ThermoML archive (doi:10.1016/j.jct.2013.01.023)
± gives the expanded uncertainty stated by the source.

Assay: mn = molality of the nth substance listed, in mol/kg
Settings: 101 kPa, Liquid; for mass density: Vibrating tube method; for speed of sound: Pulse-echo method

CNCC(=O)O [sarcosine] + O
Settings	mass density, 288.15 K [kg/m3]	mass density, 293.15 K [kg/m3]	mass density, 298.15 K [kg/m3]	mass density, 303.15 K [kg/m3]	mass density, 308.15 K [kg/m3]	speed of sound, 298.15 K [m/s]
m1 = 0.05883	1000.7 ± 0.11	999.78 ± 0.11	998.598 ± 0.11	997.176 ± 0.11	995.552 ± 0.11	1500.3 ± 0.97
m1 = 0.1166	1002.25 ± 0.11	1001.31 ± 0.11	1000.12 ± 0.11	998.68 ± 0.11	997.042 ± 0.11	1503.9 ± 0.98
m1 = 0.1777	1003.88 ± 0.11	1002.92 ± 0.11	1001.7 ± 0.11	1000.25 ± 0.11	998.599 ± 0.11	1507.7 ± 0.98
m1 = 0.2363	1005.42 ± 0.11	1004.43 ± 0.11	1003.2 ± 0.11	1001.74 ± 0.11	1000.07 ± 0.11	1511.3 ± 0.98
m1 = 0.2987	1007.05 ± 0.11	1006.03 ± 0.11	1004.79 ± 0.11	1003.31 ± 0.11	1001.63 ± 0.11	1515.2 ± 0.98

C[N+](C)(C)[O-] [trimethylamine oxide] + O
Settings	mass density, 288.15 K [kg/m3]	mass density, 293.15 K [kg/m3]	mass density, 298.15 K [kg/m3]	mass density, 303.15 K [kg/m3]	mass density, 308.15 K [kg/m3]	speed of sound, 298.15 K [m/s]
m1 = 0.0592	999.725 ± 0.38	998.807 ± 0.37	997.629 ± 0.36	996.213 ± 0.35	994.58 ± 0.34	1500.9 ± 2.7
m1 = 0.1182	1000.29 ± 0.7	999.358 ± 0.68	998.163 ± 0.66	996.73 ± 0.64	995.083 ± 0.63	1505.1 ± 5.1
m1 = 0.1768	1000.88 ± 1	999.919 ± 1	998.707 ± 0.97	997.258 ± 0.94	995.602 ± 0.91	1509.2 ± 7.5
m1 = 0.2361	1001.44 ± 1.4	1000.47 ± 1.4	999.234 ± 1.4	997.769 ± 1.3	996.09 ± 1.3	1513.3 ± 9.9
m1 = 0.2958	1002.09 ± 1.9	1001.09 ± 1.6	999.839 ± 1.6	998.357 ± 1.5	996.661 ± 1.7	1517.4 ± 12
